By IC50 is commonly meant the midpoint of a concentration-inhibition curve. The low end stands for greater potency, the high end for weaker potency. For orientation: half-life means the time needed for the level to fall by half in the phase considered. High values mean slow decline, low ones rapid decline. As usually defined, the microsomal CLint is a measure of how fast metabolising enzymes remove a compound, apart from limits set by blood flow.

The source of these data is US9981961B2, “Deoxycytidine kinase inhibitors” (The Regents of the University of California, priority 2013, dated 2018).

In one data set the target is dCK in CCRF-CEM cells (Homo sapiens, UniProt P27707). The data set is described as follows: cell-based.
In a further data set the target is dCK activity in liver (Mus musculus, UniProt P43346). The data set is described as follows: 18F-L-FAC PET liver assay of in vivo dCK inhibition. Conditions: mice.
Data set [1] has as its system dCTP and dTTP pools of CEM cells. The experiment in a line: Intracellular dNTP pool measurement in CEM cells. In kind it is cell-based, human. Conditions: 24 hr; for decrease of dCTP pool: DI-39 1 μM, dT 50 μM, or both.
Data set [2] relates to CEM leukemic cells in bone marrow. The experiment in a line: Systemic T-ALL model (CEM cells injected intravenously). In kind it is in vivo, NSG mice. The note with it: dT 2 g/kg every 12 hr.
Protocol: Ten μL of blood was collected via tail vein nick and mixed with 2 μL 50 mM EDTA. One μL of blood was mixed with 99 μL PBS and transferred to a 96 well OptiPlate (Perkin Elmer). One hundred μL of 20 μM coelenterazine substrate was mixed and luciferase activity was measured using a plate luminescence microplate reader SpectraMax L (Molecular Devices). Systemic tumor models were established by intravenous injection of 10^6 CEM dCK^wt-sGluc-GFP or dCK^low-sGluc-GFP in 100 μL RPMI.
Data set [3] can be described thus: Plasma thymidine level after dT injection. In kind it is in vivo, NSG mice. As to the method:
NOD SCID gamma (NSG) mice were injected with 2 g/kg dT intraperitoneally; 75 μL of whole blood was obtained at 0, 2, 4, and 8 hr through retro-orbital sinus bleed using hematocrit capillary tubes. Whole blood was immediately centrifuged at 3000× g for 5 min to isolate serum; 30 μL of serum was mixed with 1 mL methanol:acetonitrile (1:9), vortexed for 2 min, centrifuged at 14,000× g for 4 min at 4° C. Extraction was repeated and the pooled supernatant was dried under vacuum centrifugation. The residue was dissolved in 100 μL water, filtered and eluted through a Waters microBondapak C18 column under a gradient mobile phase from 2% methanol to 50% methanol over ten minutes at a flow rate of 1.5 mL/min.

In data set [4] the test system is NSP-produced dCTP incorporated into DNA of CEM cells. The experiment in a line: Stable isotope labeling of dCTP biosynthesis in CEM cells. The format is cell-based, human. Conditions: 12 hr labeling, dT treatment.
In data set [5] the test system is NSP-produced dCTP incorporated into tumor DNA. The experiment in a line: [U-13C/15N]-dC incorporation into DNA of CEM tumor xenografts. In kind it is in vivo, NSG mice. Conditions: dCK^wt CEM tumors, dT 2 g/kg single dose, 4 hr. Here is the method:
For the in vivo studies, tumor-bearing mice were injected with 200 μL, of 2.5 mM [U-^13C/^15N]-deoxycytidine 30 min prior to sacrifice. Tumors were harvested, mechanically digested into single cells, and cell counts were obtained. DNA extraction was carried out as described above.
DNA hydrolysis samples were diluted 1/1 with solvent A (water/formic acid, 100/0.2, v/v) and analyzed using a modified version of a previously reported method (Cohen et al., 2009) in which aliquots of the solution (10 μL) were injected onto a porous graphitic carbon column (Thermo Hypercarb, 100×2.1 mm, 3 micron particle size) equilibrated in solvent A and eluted (300 μL/min) with an increasing concentration of solvent B (acetonitrile/min/% B; 0/0, 6/60, 6.1/100, 9/100, 9.1/0, 10/0). […] After verification of retention times using authentic standards, the peak areas of the MH^+→fragment ion transitions for the dC isotopomers (M0, 228.1→112.1; M1, 229.1→112.1; M2, 230.1→112.1; M3, 231.1→112.1; M4, 232.1→112.1; M5, 233.1→112.1; M6, 234.1→113.1; M7, 235.1→114.1; M8, […]; […]; M11, 239.1→118.1; and M12, 240.1→119.1) were recorded with instrument manufacturer-supplied software (Agilent MassHunter), and normalized to cell number. The dC isotopomers of M3 through M8 for the DNP and M11 through M12 for NSP were detected and used for data analysis.

Data set [6] deals with dCK activity in CCRF-CEM tumor xenografts (Homo sapiens, UniProt P27707).
Protocol: Four hours post-treatment mice were injected intravenously with 70 μCi of ^18F-L-FAC. For all mPET/CT studies, a 1 h interval was allowed between probe administration and mPET/CT scanning (Inveon, Siemens Medical Solutions USA Inc.; microCAT, Imtek Inc.). Static mPET images were acquired for 600 s. Images were analyzed using OsiriX Imaging Software Version 3.8.
A short description of the next data set: in vitro. Conditions: human, microsomes.
The nature of data set [7]: Pharmacokinetics of DI-39 in plasma and tumor tissue (LC/MS/MS-MRM). The format is in vivo. The note with it: mouse, ip. As to the method: To determine the pharmacokinetic profile of DI-39, C57Bl/6 female mice were dosed with DI-39 via intraperitoneal injection following the protocol that was described previously (Murphy et al., 2013). Dose formulation include 10% DMSO and 40% Captisol (SBE-β-CD, a polyanionic variably substituted sulfobutyl ether of β-cyclodextrin, (Stella and He, 2008)) in water. Approximately 75 μL of whole blood was obtained at various time points starting 5 to 360 minutes through retro-orbital sinus bleed using hematocrit capillary tubes. Approximated values of the Area Under the Curve (AUC), clearance rate (CL), half-life (T1/2), maximum concentration in the plasma (Cmax) and time to reach the maximum concentration (Tmax) were calculated using Boomer/Multi-Forte P K Functions from Microsoft Excel.
For the DI-39 tumoral and plasma uptake study using LC/MS/MS-MRM, tumor-bearing NSG mice were injected with 50 mg/kg DI-39 intraperitoneally at 0, 2, 4, 8 and 12 hours prior to sacrifice. […] The ion transitions for DI-39 and DI-70 (525.2→383.3 and 550.2→408.2 respectively) were recorded under previously optimized conditions. […]

Data set [8] can be described thus: Tolerability in NSG mice (body weight, peripheral blood counts). The format is in vivo. Conditions: twice/day for 7 days, alone or in combination with dT. The text has this: All mice were anesthetized and whole blood was obtained through cardiac puncture. For peripheral blood counts, samples were collected in tubes containing EDTA and submitted to UCLA Division of Lab Animal Medicine for analysis.

The nature of a further data set: Solubility statement. The format is physicochemical.
The mark [9] stands for this setting: IC50 (nM), Table 3, inhibition of 3H-deoxycytidine (dCyd) uptake in CEM cells, mean ± SD of n ≥ 2 unless (n = 1).
The mark [10] stands for this setting: IC50, Example 5 list, assay and unit inferred, values correspond to the CEM data of Table 3.
Where [11] appears, read: IC50, Example 4 list, assay and unit inferred, values correspond to the CEM 3H-dC uptake data of Tables 3 and 7.

Sequence of dCK in CCRF-CEM cells (P27707 whole entry): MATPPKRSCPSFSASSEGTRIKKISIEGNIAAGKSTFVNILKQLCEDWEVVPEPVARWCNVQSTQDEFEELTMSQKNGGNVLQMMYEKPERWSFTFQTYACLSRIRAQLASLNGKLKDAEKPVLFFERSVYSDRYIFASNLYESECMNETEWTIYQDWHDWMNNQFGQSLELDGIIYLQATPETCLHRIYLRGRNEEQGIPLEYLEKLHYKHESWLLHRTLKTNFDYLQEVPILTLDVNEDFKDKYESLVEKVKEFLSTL
Sequence of dCK activity in liver (P43346 whole entry): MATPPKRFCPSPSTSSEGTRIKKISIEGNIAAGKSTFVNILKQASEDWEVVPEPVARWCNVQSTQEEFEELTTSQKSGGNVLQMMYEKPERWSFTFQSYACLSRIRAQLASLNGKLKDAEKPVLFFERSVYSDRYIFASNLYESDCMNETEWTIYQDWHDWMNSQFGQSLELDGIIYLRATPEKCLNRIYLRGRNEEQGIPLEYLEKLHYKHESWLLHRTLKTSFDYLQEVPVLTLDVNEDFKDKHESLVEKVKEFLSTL
Sequence of dCK activity in CCRF-CEM tumor xenografts (P27707 whole entry): as the sequence (P27707 whole entry) above
Protocol for dCK activity in liver: Evaluation of In Vivo Inhibition of dCK Activity Via a New PET PD Assay. […] Four hours later, treated mice were injected intravenously with ^18F-L-FAC; one hour after probe injection, mice were imaged by mPET/CT. The readout for the PET PD assay was the reduction in the accumulation of ^18F-L-FAC in dCK-positive tissues in dCK inhibitor versus vehicle treated mice. […] Since the reproducibility in the dCK-dependent tissue retention of ^18F-L-FAC was most consistent in the liver^27, we chose to quantify ^18F-L-FAC liver retention in order to compare the in vivo efficacy of the various dCK inhibitors.
In Vivo MicroPET/CT Imaging Studies. […] Four hours post-treatment mice were injected intravenously with 70 μCi of ^18F-L-FAC. For all mPET/CT studies, a 1 h interval was allowed between probe administration and mPET/CT scanning (Inveon, Siemens Medical Solutions USA Inc.; microCAT, Imtek Inc.). Static mPET images were acquired for 600 s. Images were analyzed using OsiriX Imaging Software Version 3.8.
Protocol for dCK in CCRF-CEM cells: These were performed in CCRF-CEM acute lymphoblastic leukemia cells as previously described.^8, 9
dCK Uptake Assay Performed in Cell Culture. […] For the uptake assays cells were seeded at a density of 50,000 cells/well in Millipore MultiScreen GV 96 well plates. […] After 1 h at 37° C., cells were washed four times with ice cold phosphate-buffered saline (PBS) using the Millipore Vacuum Manifold. The amount of incorporated probe was measured by scintillation counting with the PerkinElmer Microbeta.

With `COCCOCCOCCOc1cc(-c2nc(C(C)Sc3nc(N)cc(N)n3)c(C3CC3)s2)ccc1OC` (stereo not shown) [Compound S27], the results for the IC50 against dCK in CCRF-CEM cells (setting [9]) and against dCK in CCRF-CEM cells (setting [10]) were 3.7 nM and 2.47 nM, respectively. Besides, on dCK activity in liver, the “outcome in the PET L-FAC liver assay” value was “failed”.
As for `Cc1cn([C@H]2C[C@H](O)[C@@H](CO)O2)c(=O)[nH]c1=O` [dT, thymidine], in [1] (50 μM dT), the “fold increase of dTTP” value is listed as around 20 fold and the “fold reduction of dCTP” value is around 5 fold. Further, in data set [1], the “decrease of dCTP pool” value is recorded as around 30%. The “fold reduction in percentage of leukemic cells in bone marrow relative to vehicle and DI-39 treated groups” value in [2] is around 7 fold. For the same compound, in data set [3] (NOD SCID gamma (NSG), mouse, plasma, ip, at 8 hr after single injection 2 g/kg intraperitoneally, read-out: plasma dT, declined to baseline values), the concentration at 8 hr was around 10 µM. Further, the “plasma dT peak” value in data set [3] (two hours after single injection 2 g/kg intraperitoneally) is listed as 1.5 mM. Also, the “fold increase over baseline of utilization of NSP-produced dCTP for DNA synthesis” value in data set [4] is “more than 3 fold”. Also, in [5], the “fold increase of labeled dCTP incorporation into DNA” value is around 3 fold. Besides, in data set [6], the “increase of 18F-L-FAC accumulation” value was around 20%.
Turning to `COc1ccc(-c2nc(CSc3nc(N)cc(N)n3)c(C)s2)cc1OCCF` [Compound 15a, 2-(((2-(3-(2-fluoroethoxy)-4-methoxyphenyl)-5-methylthiazol-4-yl)methyl)thio)pyrimidine-4,6-diamine], in the data set “in vitro”, the half-life at 1 μM was determined as 16.3 min and the microsomal CLint at 1 μM is 142 µL/min/mg.
In the case of `CCCc1sc(-c2ccc(OC)c(OCCNS(C)(=O)=O)c2)nc1CSc1nc(N)cc(N)n1` [Compound 37, N-(2-(5-(4-(((4,6-diaminopyrimidin-2-yl)thio)methyl)-5-propylthiazol-2-yl)-2-methoxyphenoxy)ethyl)methanesulfonamide], the half-life in data set [7] (female, plasma, C57Bl/6 mice, intraperitoneal injection) was around 50 min. Besides, the concentration at 8 hr in data set [7] (8 hr after single dose administration, 50 mg/kg intraperitoneal, CEM tumor-bearing NSG mice, read-out: drug present in tumor tissues) is around 0.015 µM. Moreover, the “decrease of dCTP pool” value in data set [1] is recorded as around 30%. Further, in data set [8], the “effect on body weight” value is “did not affect body weight” and the “effects on RBCs, hemoglobin, platelets or neutrophils” value is on record as “no detectable effects”. The “solubility in aqueous saline solutions” value in the data set “Solubility statement” is on record as “limited solubility”.
With `COCCOCCOCCOc1ccc(-c2nc(C(C)Sc3nc(N)cc(N)n3)c(C)s2)cc1OC` (stereo not shown) [Compound S24], the IC50 stood at 6.1 nM at dCK in CCRF-CEM cells (setting [9]) and 6.12 nM at dCK in CCRF-CEM cells (setting [10]).
Turning to `CCCc1sc(-c2ccc(OC)c(OCCOCCOCCO)c2)nc1CSc1nc(N)cc(N)n1` [Compound S11], the IC50 on dCK in CCRF-CEM cells (setting [9]) and at dCK in CCRF-CEM cells (setting [11]) was 1.06 nM in each case.
Turning to `CCCc1sc(-c2ccc(OCCOCCOCCOC)c(OCC)c2)nc1CSc1nc(N)cc(N)n1` [Compound S21], the IC50 against dCK in CCRF-CEM cells (setting [9]) and against dCK in CCRF-CEM cells (setting [11]) was 2.37 nM in each case.
On dCK in CCRF-CEM cells (setting [11]), `CCCc1sc(-c2ccc(OC)c(OCCO)c2)nc1CSc1cc(N)nc(N)n1` [DI-42] came in with an IC50 of 330 nM.
Turning to `CCCc1sc(-c2ccc(OC)c(OCCOCCOCCOC)c2)nc1C(C)Sc1nc(N)cc(N)n1` (stereo not shown) [Compound S22], the IC50 was 6 nM against dCK in CCRF-CEM cells (setting [9]) and 6.01 nM against dCK in CCRF-CEM cells (setting [10]).
Turning to `COCCOCCOCCOc1cc(-c2nc(C(C)Sc3nc(N)cc(N)n3)c(C)s2)ccc1OC` (stereo not shown) [Compound S23], the IC50 on dCK in CCRF-CEM cells (setting [9]) and on dCK in CCRF-CEM cells (setting [10]) was 8.03 nM throughout.
